Measurements: paper PMC11233931, “Remodeling tumor‐associated macrophage for anti‐cancer effects by rational design of irreversible inhibition of mitogen‐activated protein kinase‐activated protein kinase 2” (MedComm, 2024)

Tests used:
Assay in all cases: Eurofins kinase selectivity profile against 380 other human recombinant kinases (Table S2)
Type in all cases: biochemical
[1] = target: T1, 380 human recombinant protein kinases (Homo sapiens, UniProt Q96BR1); details: SGK3(h), read-out: Inhibition rate (%)
T1 construct: purchased Eurofins (Celle Lévescault)
T1 sequence (Q96BR1 1-496): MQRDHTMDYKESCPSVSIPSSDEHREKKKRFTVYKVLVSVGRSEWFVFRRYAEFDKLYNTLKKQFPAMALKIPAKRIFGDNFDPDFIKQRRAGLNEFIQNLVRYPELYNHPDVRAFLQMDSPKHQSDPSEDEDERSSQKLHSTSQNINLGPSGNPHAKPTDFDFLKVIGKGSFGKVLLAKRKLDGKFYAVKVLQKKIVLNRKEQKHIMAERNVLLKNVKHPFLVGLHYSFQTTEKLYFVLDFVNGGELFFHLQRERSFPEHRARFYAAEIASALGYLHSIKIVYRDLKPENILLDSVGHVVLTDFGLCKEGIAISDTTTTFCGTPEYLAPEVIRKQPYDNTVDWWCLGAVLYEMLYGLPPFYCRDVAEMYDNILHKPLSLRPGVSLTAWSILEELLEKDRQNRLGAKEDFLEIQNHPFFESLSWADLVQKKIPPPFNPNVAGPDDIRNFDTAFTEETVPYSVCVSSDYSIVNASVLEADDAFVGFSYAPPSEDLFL
Outline: (§1)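 Profiling against 380 human recombinant kinases carried out by Eurofins at various compound concentrations.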

[2] = target: T2, 380 human recombinant protein kinases (Homo sapiens, UniProt O15075); details: DCAMKL1(h), read-out: Inhibition rate
T2 construct: purchased Eurofins (Celle Lévescault)
T2 sequence (O15075 whole entry): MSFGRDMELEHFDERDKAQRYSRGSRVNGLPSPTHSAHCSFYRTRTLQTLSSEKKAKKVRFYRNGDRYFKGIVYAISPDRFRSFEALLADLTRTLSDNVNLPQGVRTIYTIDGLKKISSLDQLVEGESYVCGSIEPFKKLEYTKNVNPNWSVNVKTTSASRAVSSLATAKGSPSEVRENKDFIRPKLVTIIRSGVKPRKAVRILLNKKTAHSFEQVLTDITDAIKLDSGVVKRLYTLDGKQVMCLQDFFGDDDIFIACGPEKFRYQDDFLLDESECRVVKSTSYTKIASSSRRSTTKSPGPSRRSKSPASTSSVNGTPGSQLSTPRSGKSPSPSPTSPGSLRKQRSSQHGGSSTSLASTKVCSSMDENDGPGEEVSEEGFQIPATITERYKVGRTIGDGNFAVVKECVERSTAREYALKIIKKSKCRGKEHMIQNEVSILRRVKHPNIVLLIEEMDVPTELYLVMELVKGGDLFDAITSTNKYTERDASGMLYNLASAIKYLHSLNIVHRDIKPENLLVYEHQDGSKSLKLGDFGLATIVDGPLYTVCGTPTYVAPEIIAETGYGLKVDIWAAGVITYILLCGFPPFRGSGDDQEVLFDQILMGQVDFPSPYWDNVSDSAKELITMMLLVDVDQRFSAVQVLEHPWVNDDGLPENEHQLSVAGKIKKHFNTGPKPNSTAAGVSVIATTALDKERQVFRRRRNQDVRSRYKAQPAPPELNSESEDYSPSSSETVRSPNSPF
Outline: as §1

[3] = target: T3, 380 human recombinant protein kinases (Homo sapiens, UniProt P42681); details: Txk(h), read-out: Inhibition rate (%)
T3 construct: purchased Eurofins (Celle Lévescault)
T3 sequence (P42681 1-527): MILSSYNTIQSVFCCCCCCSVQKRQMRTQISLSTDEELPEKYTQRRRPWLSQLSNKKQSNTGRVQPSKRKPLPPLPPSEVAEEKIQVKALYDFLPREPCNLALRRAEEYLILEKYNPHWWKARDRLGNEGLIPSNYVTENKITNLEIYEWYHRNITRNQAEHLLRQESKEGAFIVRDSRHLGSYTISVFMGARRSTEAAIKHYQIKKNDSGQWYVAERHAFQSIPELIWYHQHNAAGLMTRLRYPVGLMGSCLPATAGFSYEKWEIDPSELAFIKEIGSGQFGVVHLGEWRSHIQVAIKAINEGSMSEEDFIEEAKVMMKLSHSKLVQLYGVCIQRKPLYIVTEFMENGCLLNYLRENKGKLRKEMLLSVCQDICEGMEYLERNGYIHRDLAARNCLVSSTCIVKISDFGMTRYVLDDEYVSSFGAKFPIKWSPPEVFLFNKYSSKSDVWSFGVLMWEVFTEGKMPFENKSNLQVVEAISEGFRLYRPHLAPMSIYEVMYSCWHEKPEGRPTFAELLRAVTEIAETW
Outline: as §1

[4] = target: T4, 380 human recombinant protein kinases (Homo sapiens, UniProt O95835); details: LATS1(h), read-out: Inhibition rate
T4 construct: purchased Eurofins (Celle Lévescault)
T4 sequence (O95835 1-1130): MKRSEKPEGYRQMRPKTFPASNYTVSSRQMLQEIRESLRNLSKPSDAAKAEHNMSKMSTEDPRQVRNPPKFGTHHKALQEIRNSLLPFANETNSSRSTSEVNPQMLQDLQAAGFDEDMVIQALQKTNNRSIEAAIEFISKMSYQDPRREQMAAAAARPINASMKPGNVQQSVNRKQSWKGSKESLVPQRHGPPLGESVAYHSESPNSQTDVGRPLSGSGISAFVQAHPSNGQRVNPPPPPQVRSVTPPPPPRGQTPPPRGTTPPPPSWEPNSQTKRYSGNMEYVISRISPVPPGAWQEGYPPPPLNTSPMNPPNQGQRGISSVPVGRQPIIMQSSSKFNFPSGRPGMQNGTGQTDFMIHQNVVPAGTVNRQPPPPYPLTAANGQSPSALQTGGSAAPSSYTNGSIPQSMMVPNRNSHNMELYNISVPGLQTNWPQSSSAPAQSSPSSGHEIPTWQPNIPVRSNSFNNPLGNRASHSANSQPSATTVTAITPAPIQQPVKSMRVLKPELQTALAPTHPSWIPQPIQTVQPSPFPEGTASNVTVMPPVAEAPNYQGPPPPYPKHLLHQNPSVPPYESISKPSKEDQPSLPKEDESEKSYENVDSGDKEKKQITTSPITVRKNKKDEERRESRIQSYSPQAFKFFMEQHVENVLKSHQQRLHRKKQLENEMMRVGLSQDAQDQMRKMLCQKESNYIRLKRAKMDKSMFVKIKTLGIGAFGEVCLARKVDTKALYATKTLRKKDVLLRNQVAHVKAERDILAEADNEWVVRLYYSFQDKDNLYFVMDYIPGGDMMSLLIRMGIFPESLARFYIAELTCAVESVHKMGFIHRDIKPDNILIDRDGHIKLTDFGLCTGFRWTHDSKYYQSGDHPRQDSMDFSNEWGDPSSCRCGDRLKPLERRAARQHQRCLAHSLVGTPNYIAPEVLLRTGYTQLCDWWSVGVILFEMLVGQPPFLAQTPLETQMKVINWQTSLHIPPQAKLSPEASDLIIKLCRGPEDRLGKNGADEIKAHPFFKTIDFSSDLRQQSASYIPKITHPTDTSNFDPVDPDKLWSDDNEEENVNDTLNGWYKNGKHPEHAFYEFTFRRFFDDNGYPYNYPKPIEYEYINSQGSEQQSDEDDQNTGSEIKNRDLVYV
Outline: as §1

Structure (SMILES): C=CC(=O)Nc1cc(-c2cc(-c3cc4c([nH]3)CCNC4=O)ccn2)ccc1OC(F)(F)F [compound 11]
- inhibition at 0.01 µM ([1]; 10 nM): -8%
- inhibition at 0.1 µM ([1]; 100 nM): 2%
- inhibition at 1 µM ([1]; 1000 nM): -4%
- inhibition at 0.01 µM ([2]; 10 nM): 3%
- inhibition at 0.1 µM ([2]; 100 nM): -1%
- inhibition at 1 µM ([2]; 1000 nM): -1%
- inhibition at 0.01 µM ([3]; 10 nM): -3%
- inhibition at 0.1 µM ([3]; 100 nM): 1%
- inhibition at 1 µM ([3]; 1000 nM): -1%
- inhibition at 0.01 µM ([4]; 10 nM): -11%
- inhibition at 0.1 µM ([4]; 100 nM): -3%
- inhibition at 1 µM ([4]; 1000 nM): 1%
